Experimental findings from article PMC3579935, “High-Throughput Screening for Growth Inhibitors Using a Yeast Model of Familial Paraganglioma” (PLoS ONE, 2013) are described below.

Read-outs that look alike come from different tables or passages of the source.

The assay has as its target T1, yeast alcohol dehydrogenase (Saccharomyces cerevisiae, UniProt P00330).
T1 construct: gene ADH1
T1 sequence (P00330 2-348): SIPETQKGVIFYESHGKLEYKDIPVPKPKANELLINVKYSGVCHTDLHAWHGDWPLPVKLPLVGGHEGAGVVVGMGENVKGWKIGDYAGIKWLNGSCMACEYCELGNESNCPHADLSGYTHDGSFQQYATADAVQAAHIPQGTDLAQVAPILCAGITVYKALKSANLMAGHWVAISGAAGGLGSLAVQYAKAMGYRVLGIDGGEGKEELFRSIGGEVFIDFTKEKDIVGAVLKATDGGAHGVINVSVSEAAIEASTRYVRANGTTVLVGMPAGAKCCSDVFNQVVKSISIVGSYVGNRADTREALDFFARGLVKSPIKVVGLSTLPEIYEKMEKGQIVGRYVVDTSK
Nature of the assay: NADH absorbance ([…] nm) enzyme assay of acetaldehyde reduction, 8-point dose response. The class given is biochemical.

As usually defined, the IC50 is the point on the concentration scale where inhibition reaches its midpoint. For the molecule `COc1ccc(/C=C/[N+](=O)[O-])cc1Br` [compound 7241889, 7241889], the IC50 is 1.3 µM. Still for that read-out and setting: for `C#CCOc1c(Cl)cc(/C=C/[N+](=O)[O-])cc1OC` [compound 7312219, 7312219] the value was 3.8 µM. In the case of `CC(=O)c1ccc(O)c2c1C1C=CCC1C(c1ccc(Cl)cc1)N2` (stereo not shown) [compound 7172827, 7172827], where the note is “read-out: IC50 yADH ^c”, the IC50 was found to be 25.6 µM. `COc1cc(C)c(/C=C/[N+](=O)[O-])cc1C(C)C` [compound 7279172, 7279172] registered an IC50 of 12.7 µM.
